Patent US5674867A, “Indolocarbazole derivatives and therapeutic method for stimulating megakaicyocyte production” (Kyowa Hakko Kogyo Co., Ltd., priority 1992, dated 1997)

Tested on: bone marrow cells (megakaryocyte colony formation)
Assay: Megakaryocyte colony formation-stimulating activity (ACHE-stained colonies, bone marrow cells with IL-3)
Assay type: cell-based, BALB/c mouse
Conditions: with IL-3 100 U/ml, 7 days
Description: An eight-weeks-old BALB/c mouse was killed. Its femurs and cervical vertebrae were taken out, and both end sections thereof were cut off. Bone marrow cells were collected from the pieces cut off from the femurs and cervical vertebrae using a syringe containing IMDM (430-2200EA prepared by Gibco Co.), and then blown into a test tube. The test tube was allowed to stand for 5 minutes, and the supernatant was collected with a pipet. To a reaction mixture comprising the bone marrow cells (50,000 cells), bovine serum albumin (2%: A4508 made by Sigma Co.), transferrin (600 μg/ml 652202 made by Boehringer Mannheim Co.), IL-3 (100 U/ml), cholesterol (16 μg/ml: 036-0641 made by Wako Co.) and agar (0.6%: 0142-02 made by Difco Laboratories) were separately added the test compounds at various concentrations, and 1 ml each of the mixtures was put into a 35-mm dish (Lux Co.), followed by incubation under the conditions of 37° C., 5% CO2 and a humidity of 95% or more for 7 days. Separately, IL-3 alone was added to the bone marrow cells to prepare a control, whereas a positive control was prepared by adding 200 U/ml IL-6 to the above-mentioned reaction mixture. After the incubation was completed, the agar was dried over a filter paper (1001-055 made by Whatman Co.) and then fixed with 2.5% glutaraldehyde, followed by acetylcholinesterase staining (ACHE staining).
The ACHE staining was carried out by the method described below.
ACHE staining: To each sample was added a solution comprising 0.67 mg/ml acetylthiocholine iodide, 2.94 mg/ml sodium citrate, 7.5 mg/ml copper (II) sulfate and 1.65 mg/ml potassium ferricyanide, and the mixture was allowed to stand at room temperature in the dark for 4-6 hours.
A group of 4 or more megakaryocytes which were stained reddish brown was regarded as a colony, and the number of colonies per dish was calculated using a microscope. The results are shown in Table 2 as relative values to the control.

| Compound | Relative value (megakaryocyte colonies, control = 100) (0.1 nM) | Relative value (megakaryocyte colonies, control = 100) (1 nM) | Relative value (megakaryocyte colonies, control = 100) (10 nM) | Relative value (megakaryocyte colonies, control = 100) (0.01 nM) | Relative value (megakaryocyte colonies, control = 100) (1 nM, 10080 min, 0.001 µM) | Relative value (megakaryocyte colonies, control = 100) (100 nM) | Relative value (megakaryocyte colonies, control = 100) (200 U/ml, positive control) |
| --- | --- | --- | --- | --- | --- | --- | --- |
| CCCN1Cc2c(c3c4ccccc4n4c3c3c2c2ccccc2n3C2(C)OC4CC(NC)C2OC)C1=O (stereo not shown) [Compound I-19] | 118 | 94 | 156 |  |  |  |  |
| CCCOc1ccc2c(c1)c1c3c(c4c5ccccc5n5c4c1n2C1CC(OC)(C(=O)OC)C5(C)O1)CN(C)C3=O (stereo not shown) [Compound I-38] | 112 | 111 | 136 |  |  |  |  |
| CCCOc1ccc2c(c1)c1c3c(c4c5cc(OCCC)ccc5n5c4c1n2C1CC(O)(C(=O)OC)C5(C)O1)CNC3=O (stereo not shown) [Compound I-12] | 133 | 113 | 122 |  |  |  |  |
| CNC1CC2OC(C)(C1OC)n1c3ccccc3c3c4c(c5c6ccccc6n2c5c31)C(=O)N(C)C4 (stereo not shown) [Compound I-2] |  |  |  | 125 | 168 |  |  |
| CC12OC(CC1O)n1c3ccccc3c3c4c(c5c6ccccc6n2c5c31)CNC4=O (stereo not shown) [Compound I-46] | 97 | 131 | 112 |  |  |  |  |
| COC(=O)C1(OC(C)=O)CC2OC1(C)n1c3ccccc3c3c4c(c5c6cc(C(C)=O)ccc6n2c5c31)C(=O)N(C(C)=O)C4 (stereo not shown) [Compound I-37] | 82 | 124 | 114 |  |  |  |  |
| CNC1CC2OC(C)(C1OC)n1c3ccccc3c3c4c(c5c6ccccc6n2c5c31)C(=O)N(C)C4O (single isomer, unassigned) [Compound I-23b] | 114 |  |  |  |  |  |  |
| COC(=O)C1(O)CC2OC1(C)n1c3ccccc3c3c4c(c5c6ccccc6n2c5c31)C(=O)NC4O (stereo not shown) [Compound I-4] |  | 115 |  | 94.3 |  |  |  |
| CNC1CC2OC(C)(C1OC)n1c3ccccc3c3c4c(c5c6cc(Br)ccc6n2c5c31)C(=O)NC4 (stereo not shown) [Compound I-29] | 90 | 113 | 112 |  |  |  |  |
| CCCN(C)C1CC2OC(C)(C1OC)n1c3ccccc3c3c4c(c5c6ccccc6n2c5c31)C(=O)N(C)C4 (stereo not shown) [Compound I-24] | 88 | 87 | 109 |  |  |  |  |
| CCCCCCN(C)C1CC2OC(C)(C1OC)n1c3ccccc3c3c4c(c5c6ccccc6n2c5c31)C(=O)NC4 (stereo not shown) [Compound I-27] | 76 | 109 | 97 |  |  |  |  |
| CCCN1C(=O)c2c(c3c4ccccc4n4c3c3c2c2ccccc2n3C2CC(O)(C(=O)OC)C4(C)O2)C1=O (stereo not shown) [Compound I-44] | 126 | 70 | 118 |  |  |  |  |
| CCSC1NC(=O)c2c1c1c3ccccc3n3c1c1c2c2ccccc2n1C1CC(O)(C(=O)OC)C3(C)O1 (stereo not shown) [Compound I-14] | 118 | 115 | 116 |  |  |  |  |
| CC(C)OC(=O)C1(O)CC2OC1(C)n1c3ccccc3c3c4c(c5c6ccccc6n2c5c31)C(=O)NC4 (stereo not shown) [Compound I-45] | 103 | 143 | 100 |  |  |  |  |
| CNC1CC2OC(C)(C1OC)n1c3ccccc3c3c4c(c5c6ccccc6n2c5c31)C(=O)N(Cc1ccccc1)C4 (stereo not shown) [Compound I-21] | 95 | 105 | 97 |  |  |  |  |
| COC(=O)C1(OC)CC2OC1(C)n1c3ccccc3c3c4c(c5c6ccccc6n2c5c31)C(=O)N(C)C4 (stereo not shown) [Compound I-7] |  | 101 |  | 93 |  | 108 |  |
| IL-6: hematopoietic factor which stimulates the production of blood platelets; positive control |  |  |  |  |  |  | 117 |

| Compound | Relative value (megakaryocyte colonies, control = 100) (0.1 nM) | Relative value (megakaryocyte colonies, control = 100) (1 nM) | Relative value (megakaryocyte colonies, control = 100) (10 nM) | Relative value (megakaryocyte colonies, control = 100) (0.01 nM) | Relative value (megakaryocyte colonies, control = 100) (1 nM, 10080 min, 0.001 µM) | Relative value (megakaryocyte colonies, control = 100) (100 nM) | Relative value (megakaryocyte colonies, control = 100) (200 U/ml, positive control) |
| --- | --- | --- | --- | --- | --- | --- | --- |
| COC1C(N(C)C(C)=O)CC2OC1(C)n1c3ccccc3c3c4c(c5c6ccccc6n2c5c31)C(=O)NC4 (stereo not shown) [Compound I-28] | 89 | 101 | 95 |  |  |  |  |
| O=C1NCc2c1c1c3ccccc3[nH]c1c1[nH]c3ccccc3c21 [Compound I-16] | 118 | 88.3 | 100 |  |  |  |  |
| CNC1CC2OC(C)(C1OC)n1c3ccccc3c3c4c(c5c6ccccc6n2c5c31)C(=O)N(N)C4=O (stereo not shown) [Compound I-3] |  | 127 |  | 98.8 |  |  |  |
| CCCOC(=O)C1(O)CC2OC1(C)n1c3ccccc3c3c4c(c5c6ccccc6n2c5c31)C(=O)NC4 (stereo not shown) [Compound I-42] | 91 | 107 | 122 |  |  |  |  |
| CCCCCCOC(=O)C1(O)CC2OC1(C)n1c3ccccc3c3c4c(c5c6ccccc6n2c5c31)C(=O)NC4 (stereo not shown) [Compound I-5] |  | 104 |  | 112 |  | 103 |  |
| COC1C(N(C)C(=O)OCc2ccccc2)CC2OC1(C)n1c3ccccc3c3c4c(c5c6ccccc6n2c5c31)C(=O)N(C)C4 (stereo not shown) [Compound I-18] | 118 | 88 | 84 |  |  |  |  |
| COC(=O)C1(O)CC2OC1(C)n1c3ccccc3c3c4c(c5c6ccccc6n2c5c31)C(=O)N(Cc1ccccc1)C4=O (stereo not shown) [Compound I-13] | 100 | 113 | 125 |  |  |  |  |
| CCCCOC(=O)C1(O)CC2OC1(C)n1c3ccccc3c3c4c(c5c6ccccc6n2c5c31)C(=O)NC4=O (stereo not shown) [Compound I-43] | 81 | 118 | 87 |  |  |  |  |
| CNC1CC2OC(C)(C1OC)n1c3ccccc3c3c4c(c5c6cc(C=O)ccc6n2c5c31)C(=O)N(C)C4 (stereo not shown) [Compound I-50] |  | 118 | 128 |  |  |  |  |
| COCOC1(C(=O)OC)CC2OC1(C)n1c3ccccc3c3c4c(c5c6ccccc6n2c5c31)C(=O)NC4 (stereo not shown) [Compound I-39] | 123 | 109 | 92 |  |  |  |  |
| CCCOc1ccc2c(c1)c1c3c(c4c5ccccc5n5c4c1n2C1CC(O)(C(=O)OC)C5(C)O1)CNC3=O (stereo not shown) [Compound I-6] |  | 132 |  | 112 |  | 117 |  |
| COC(=O)C1(OC)CC2OC1(C)n1c3ccccc3c3c4c(c5c6ccccc6n2c5c31)C(=O)NC4 (stereo not shown) [Compound I-36] | 130 | 172 | 173 |  |  |  |  |
| CNC1CC2OC(C)(C1OC)n1c3ccccc3c3c4c(c5c6ccccc6n2c5c31)C(=O)N(C)C4O (single isomer, unassigned) [Compound I-23a] | 114 |  |  |  |  |  |  |
| COC(=O)C1(OC(C)=O)CC2OC1(C)n1c3ccccc3c3c4c(c5c6ccccc6n2c5c31)C(=O)N(C(C)=O)C4 (stereo not shown) [Compound I-8] |  | 118 |  | 95.6 |  | 89.6 |  |
| COC1C(N(C)C)CC2OC1(C)n1c3ccccc3c3c4c(c5c6ccccc6n2c5c31)C(=O)N(C)C4 (stereo not shown) [Compound I-49] | 122 | 128 |  |  |  |  |  |
| COC(=O)C1(O)CC2OC1(C)n1c3ccccc3c3c4c(c5c6cc(S(=O)(=O)N7CCN(C)CC7)ccc6n2c5c31)C(=O)NC4 (stereo not shown) [Compound I-11] | 88.4 | 95 | 116 |  |  |  |  |
| CNC1CC2OC(C)(C1OC)n1c3ccccc3c3c4c(c5c6ccccc6n2c5c31)C(=O)N(C)C4=O (stereo not shown) [Compound I-9] | 135 | 117 | 92.2 |  |  |  |  |
